Assay results published in patent US20110082130A1 (LIGAND PHARMACEUTICALS, INC., priority 2006, published 2011).

The compounds below were run against T1, chimeric human H3 receptor (Homo sapiens, UniProt Q9Y5N1) (assay: Chimeric human H3 receptor screening GTP binding assay (inhibition of histamine-stimulated GTP-gamma35S binding, Example 8)). Settings: 4 μM of the compound, 1 μM histamine, "†" in Ki of Table II, read-out: percent inhibition of the signal obtained with 1 μM histamine.
T1 construct: made in house; host or cells: Sf9 insect cells (baculovirus); P2 membrane preparation
Format: biochemical
Method: This Example illustrates a representative screening assay for evaluating inhibition of histamine-stimulated GTP-gamma^35S binding. Such GTP binding activity can be used to identify H3 antagonists and inverse agonists. A compound analyzed in this assay is referred to herein as a “test compound,” and the initial identification of antagonists and inverse agonists is performed using a test compound concentration of 4 μM.
Four independent baculoviral stocks (one directing the expression of the chimeric human H3 receptor and three directing the expression of each of the three subunits of a heterotrimeric G-protein) are used to infect a culture of Sf9 cells as described above. P2 membranes are prepared as described above, and are resuspended by Dounce homogenization (tight pestle) in GTP binding assay buffer (50 mM Tris pH 7.4, 120 mM NaCl, 5 mM MgCl2, 2 mM EGTA, 1 mg/ml BSA, 0.2 mg/ml bacitracin, 0.02 mg/ml aprotinin, 0.01 mg/ml saponin, 10 μM GDP) and added to assay tubes at a concentration of 35 μg protein/reaction tube. Non-radiolabeled test compounds are added to separate reactions at a concentration of 4 μM along with 1 μM histamine (agonist). Reactions are initiated by the addition of […] GTP-gamma^35S with a final assay volume of 0.20 ml.
After a 60-min incubation at room temperature, reactions are terminated by vacuum filtration over GF/C filters (pre-soaked in 50 mM Tris pH 7.4, 120 mM NaCl plus 0.1% BSA) followed by washing with ice-cold buffer (50 mM Tris pH 7.4, 120 mM NaCl). The amount of receptor-bound (and thereby membrane-bound) GTP-gamma^35S is determined by measuring the bound radioactivity, preferably by liquid scintillation spectrometry of the washed filters. Non-specific binding is determined using 10 uM GTP-gammaS and typically represents less than 5 percent of total binding. After subtraction of non-specific binding, data is expressed as percent inhibition of 1 μM histamine signal.
Neutral antagonists are those test compounds that reduce the histamine-stimulated GTP binding activity towards, but not below, baseline levels. In contrast, in the absence of added histamine, inverse agonists reduce the GTP binding activity of the receptor-containing membranes below baseline. Any test compound that elevates GTP binding activity above baseline in the absence of added histamine in this assay is defined as having agonist activity.

T1 sequence (Q9Y5N1 with tags, fused parts or gaps): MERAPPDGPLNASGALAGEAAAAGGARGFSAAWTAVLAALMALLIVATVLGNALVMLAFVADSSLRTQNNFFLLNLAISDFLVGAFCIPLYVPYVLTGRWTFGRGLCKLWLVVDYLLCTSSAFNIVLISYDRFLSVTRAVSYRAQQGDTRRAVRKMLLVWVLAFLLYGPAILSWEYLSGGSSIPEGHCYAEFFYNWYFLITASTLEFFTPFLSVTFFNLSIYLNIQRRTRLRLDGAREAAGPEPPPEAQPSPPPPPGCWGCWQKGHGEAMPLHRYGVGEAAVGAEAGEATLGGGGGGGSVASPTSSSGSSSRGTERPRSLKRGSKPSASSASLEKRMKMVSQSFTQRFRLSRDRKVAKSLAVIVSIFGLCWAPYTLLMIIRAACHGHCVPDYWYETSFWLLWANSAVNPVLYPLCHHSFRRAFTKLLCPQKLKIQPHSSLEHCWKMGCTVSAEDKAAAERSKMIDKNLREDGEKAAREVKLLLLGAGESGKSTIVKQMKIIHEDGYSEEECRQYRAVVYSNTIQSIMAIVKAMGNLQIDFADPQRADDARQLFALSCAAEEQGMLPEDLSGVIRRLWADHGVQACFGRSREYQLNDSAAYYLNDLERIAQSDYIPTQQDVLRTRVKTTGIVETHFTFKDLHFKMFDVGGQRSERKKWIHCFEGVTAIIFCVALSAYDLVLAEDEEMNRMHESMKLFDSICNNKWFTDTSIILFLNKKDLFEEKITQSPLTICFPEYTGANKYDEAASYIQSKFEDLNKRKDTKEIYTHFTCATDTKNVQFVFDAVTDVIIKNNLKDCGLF

Inhibition at 4 µM, ≥ 90%:
O=C(CN1CCc2cc(-c3cccc(F)c3)ccc2C1)N1CCN(C2CCCCC2)CC1 [Compound 412, 2-[2-(4-cyclohexylpiperazin-1-yl)-2-oxoethyl]-6-(3-fluorophenyl)-1,2,3,4-tetrahydroisoquinoline]
CC(C)N1CCN(C(=O)CN2CCc3cc(-c4cccc(F)c4)ccc3C2)CC1 [Compound 413, 6-(3-fluorophenyl)-2-[2-(4-isopropylpiperazin-1-yl)-2-oxoethyl]-1,2,3,4-tetrahydroisoquinoline]
O=C(CN1CCc2cc(-c3ccccc3F)ccc2C1)N1CCN(C2CCC2)CC1 [Compound 414, 2-[2-(4-cyclobutylpiperazin-1-yl)-2-oxoethyl]-6-(2-fluorophenyl)-1,2,3,4-tetrahydroisoquinoline]
O=C(CN1CCc2cc(-c3ccccc3F)ccc2C1)N1CCN(C2CCCC2)CC1 [Compound 415, 2-[2-(4-cyclopentylpiperazin-1-yl)-2-oxoethyl]-6-(2-fluorophenyl)-1,2,3,4-tetrahydroisoquinoline]
O=C(CN1CCc2cc(-c3ccc4ccccc4c3)ccc2C1)N1CCN(C2CCC2)CC1 [Compound 416, 2-[2-(4-cyclobutylpiperazin-1-yl)-2-oxoethyl]-6-(2-naphthyl)-1,2,3,4-tetrahydroisoquinoline]
O=C(CN1CCc2cc(-c3ccc4ccccc4c3)ccc2C1)N1CCN(C2CCCC2)CC1 [Compound 417, 2-[2-(4-cyclopentylpiperazin-1-yl)-2-oxoethyl]-6-(2-naphthyl)-1,2,3,4-tetrahydroisoquinoline]
O=C(CN1CCc2cc(-c3ccc4ccccc4c3)ccc2C1)N1CCN(C2CCCCC2)CC1 [Compound 418, 2-[2-(4-cyclohexylpiperazin-1-yl)-2-oxoethyl]-6-(2-naphthyl)-1,2,3,4-tetrahydroisoquinoline]
CC(C)N1CCN(C(=O)CN2CCc3cc(-c4ccc5ccccc5c4)ccc3C2)CC1 [Compound 419, 2-[2-(4-isopropylpiperazin-1-yl)-2-oxoethyl]-6-(2-naphthyl)-1,2,3,4-tetrahydroisoquinoline]
Cc1ccc(-c2ccc3c(c2)CCN(CC(=O)N2CCN(C4CCC4)CC2)C3)c(F)c1 [Compound 420, 2-[2-(4-cyclobutylpiperazin-1-yl)-2-oxoethyl]-6-(2-fluoro-4-methylphenyl)-1,2,3,4-tetrahydroisoquinoline]
Cc1ccc(-c2ccc3c(c2)CCN(CC(=O)N2CCN(C4CCCC4)CC2)C3)c(F)c1 [Compound 421, 2-[2-(4-cyclopentylpiperazin-1-yl)-2-oxoethyl]-6-(2-fluoro-4-methylphenyl)-1,2,3,4-tetrahydroisoquinoline]
Cc1ccc(-c2ccc3c(c2)CCN(CC(=O)N2CCN(C4CCCCC4)CC2)C3)c(F)c1 [Compound 422, 2-[2-(4-cyclohexylpiperazin-1-yl)-2-oxoethyl]-6-(2-fluoro-4-methylphenyl)-1,2,3,4-tetrahydroisoquinoline]
Cc1ccc(F)c(-c2ccc3c(c2)CCN(CC(=O)N2CCN(C4CCC4)CC2)C3)c1 [Compound 423, 2-[2-(4-cyclobutylpiperazin-1-yl)-2-oxoethyl]-6-(2-fluoro-5-methylphenyl)-1,2,3,4-tetrahydroisoquinoline]
Cc1ccc(F)c(-c2ccc3c(c2)CCN(CC(=O)N2CCN(C4CCCC4)CC2)C3)c1 [Compound 424, 2-[2-(4-cyclopentylpiperazin-1-yl)-2-oxoethyl]-6-(2-fluoro-5-methylphenyl)-1,2,3,4-tetrahydroisoquinoline]
Cc1ccc(F)c(-c2ccc3c(c2)CCN(CC(=O)N2CCN(C4CCCCC4)CC2)C3)c1 [Compound 425, 2-[2-(4-cyclohexylpiperazin-1-yl)-2-oxoethyl]-6-(2-fluoro-5-methylphenyl)-1,2,3,4-tetrahydroisoquinoline]
Cc1ccc(-c2ccc3c(c2)CCN(CC(=O)N2CCN(C4CCC4)CC2)C3)cc1F [Compound 426, 2-[2-(4-cyclobutylpiperazin-1-yl)-2-oxoethyl]-6-(3-fluoro-4-methylphenyl)-1,2,3,4-tetrahydroisoquinoline]
Cc1ccc(-c2ccc3c(c2)CCN(CC(=O)N2CCN(C4CCCC4)CC2)C3)cc1F [Compound 427, 2-[2-(4-cyclopentylpiperazin-1-yl)-2-oxoethyl]-6-(3-fluoro-4-methylphenyl)-1,2,3,4-tetrahydroisoquinoline]
Cc1ccc(-c2ccc3c(c2)CCN(CC(=O)N2CCN(C4CCCCC4)CC2)C3)cc1F [Compound 428, 2-[2-(4-cyclohexylpiperazin-1-yl)-2-oxoethyl]-6-(3-fluoro-4-methylphenyl)-1,2,3,4-tetrahydroisoquinoline]
Cc1cc(-c2ccc3c(c2)CCN(CC(=O)N2CCN(C4CCC4)CC2)C3)ccc1F [Compound 429, 2-[2-(4-cyclobutylpiperazin-1-yl)-2-oxoethyl]-6-(4-fluoro-3-methylphenyl)-1,2,3,4-tetrahydroisoquinoline]
Cc1cc(-c2ccc3c(c2)CCN(CC(=O)N2CCN(C4CCCC4)CC2)C3)ccc1F [Compound 430, 2-[2-(4-cyclopentylpiperazin-1-yl)-2-oxoethyl]-6-(4-fluoro-3-methylphenyl)-1,2,3,4-tetrahydroisoquinoline]
Cc1cc(-c2ccc3c(c2)CCN(CC(=O)N2CCN(C4CCCCC4)CC2)C3)ccc1F [Compound 431, 2-[2-(4-cyclohexylpiperazin-1-yl)-2-oxoethyl]-6-(4-fluoro-3-methylphenyl)-1,2,3,4-tetrahydroisoquinoline]
Cc1cccc(-c2ccc3c(c2)CCN(CC(=O)N2CCN(C4CCC4)CC2)C3)c1 [Compound 432, 2-[2-(4-cyclobutylpiperazin-1-yl)-2-oxoethyl]-6-(3-methylphenyl)-1,2,3,4-tetrahydroisoquinoline]
Cc1cccc(-c2ccc3c(c2)CCN(CC(=O)N2CCN(C4CCCC4)CC2)C3)c1 [Compound 433, 2-[2-(4-cyclopentylpiperazin-1-yl)-2-oxoethyl]-6-(3-methylphenyl)-1,2,3,4-tetrahydroisoquinoline]
Cc1cccc(-c2ccc3c(c2)CCN(CC(=O)N2CCN(C4CCCCC4)CC2)C3)c1 [Compound 434, 2-[2-(4-cyclohexylpiperazin-1-yl)-2-oxoethyl]-6-(3-methylphenyl)-1,2,3,4-tetrahydroisoquinoline]
Cc1ccc(-c2ccc3c(c2)CCN(CC(=O)N2CCN(C4CCC4)CC2)C3)cc1 [Compound 435, 2-[2-(4-cyclobutylpiperazin-1-yl)-2-oxoethyl]-6-(4-methylphenyl)-1,2,3,4-tetrahydroisoquinoline]
Cc1ccc(-c2ccc3c(c2)CCN(CC(=O)N2CCN(C4CCCC4)CC2)C3)cc1 [Compound 436, 2-[2-(4-cyclopentylpiperazin-1-yl)-2-oxoethyl]-6-(4-methylphenyl)-1,2,3,4-tetrahydroisoquinoline]
Cc1ccc(-c2ccc3c(c2)CCN(CC(=O)N2CCN(C4CCCCC4)CC2)C3)cc1 [Compound 437, 2-[2-(4-cyclohexylpiperazin-1-yl)-2-oxoethyl]-6-(4-methylphenyl)-1,2,3,4-tetrahydroisoquinoline]
